Read-outs that look alike come from different tables or passages of the source. Blank lines part the entries; values can stand above or below the compound they belong to. Ends that are not written are not given here.
Experiments:
platelets = format: cell-based, human; conditions: for inhibition of aggregation / inhibition of secretion: peptide 1 mM
Experimental: Fresh whole blood was collected and mixed with 0.013 M sodium citrate and platelet-rich plasma was prepared according to the method of Meloni et al., J. Biol. Chem. 266, 6786, 1991. Washed platelets were prepared by gel filtration over Sepharose 2B columns in Hepes-Tyrode's buffer (0.137 M NaCl, 3 mM KCl, 0.4 mM Na H2 PO4, 12 mM NaHCO3, 1 mM MgCl2, 14.7 mM Hepes containing 20 mM glucose and 0.2% bovine serum albumin, pH 7.35). Platelets for aggregation and secretion studies were incubated according to the method of Schmaier et al., Blood 56, 1013, 1980 with 5-[^14 C]hydroxytryptamine for 30 min at 37° C. The washed platelets (2×10^8 /ml, final concentration radiolabeled with 5-[^14 C]hydroxytryptamine) were added to a cuvette of an aggregometer (Chronolog Corp., Havertown, Pa.), standardized using the protocol of Meloni et al., supra. After the addition of ZnCl2, final concentration 50 μM, purified HK (1 μM) or various concentrations of the peptides (0.1 to 3 mM) or buffer alone was added to the cuvette. Once the baseline stabilized, α-thrombin [0.125 U/ml (1 nM) final concentration] was then added to initiate platelet activation. Stirred platelets were allowed to incubate with o-thrombin and additions for 1 min. In other experiments, platelets were stimulated with TRAP (0.625 to 2.5 μM), ADP (1-5 μM)(Sigma), collagen (1.25 μg/ml) (Horm, Munich, Germany), or U-46619 (1 μM)(Calbiochem Behring, San Diego, Calif.). Additional experiments were performed with washed platelets stimulated with γ-thrombin (1 nM) in the presence of human fibrinogen (100 mg/dl). Both γ-thrombin and human fibrinogen were purchased from Enzyme Research Laboratories, South Bend, Ind. At the conclusion of the incubation, the entire platelet sample was centrifuged at 10,900 xg (Model E, Beckman Instruments, Palo Alto, Calif.) over a 0.135 mM formaldehyde, 5 mM EDTA solution (1 part of formaldehyde-EDTA to 4 parts of platelet suspension) and stored on ice until an aliquot of the supernatant was assayed for 5-[^14 C]hydroxytryptamine secretion. Percent secretion was determined by the ratio of the loss of 5-[^14 C]hydroxytryptamine in the supernatant of the agonist-treated specimen to the loss of 5-[^14 C]hydroxytryptamine in the supernatant of the platelet lysate after the value of the control supernatant (i.e., the level of 5-[^14 C]hydroxytryptamine in a unstimulated sample) was subtracted from both.

human platelets = format: cell-based
Experimental: The cytoplasmic free Ca^2+ concentration ([Ca^2+ ]i) was measured using the fluorescent Ca^2 + indicator fura-2 (Molecular Probes, Inc., Eugene, Oreg.). Gel filtered platelets in Hepes-Tyrode's buffer were loaded with fura-2 by incubation at 37° C. with 1 μM fura-2/acetoxymethyl ester for 45 min according to the method of Rasmussen et al., J. Biol. Chem. 268, 14322 (1993). The labeled platelets were then re-gel filtered to remove any excess probe. Aliquots of the labeled platelet suspension were transferred into a quartz cuvette with a magnetic stirrer, which was then placed in a thermostatically controlled chamber at 37° C. in a fluorescence spectrophotometer (Dual Wave Length Shimazdu SP5000 Spectrofluorometer, Shimazdu USA, Pittsburgh, Pa.). Reagents were directly added to the cuvette. The excitation wave lengths varied between 340 and 380 nm. The fluorescence was measured by recording emitted light at 510 nm as reported by Fisher et al, Mol. Pharm. 35, 195 (1989). The minimum emission was determined on a 20 mM digitonin, 10 mM EGTA solubilized platelet sample; maximum emission was determined on the same sample with 10 mM Ca^2+ added. The intraplatelet free Ca^2+ concentration was calculated by the method of Grykiewicz et al., J. Biol. Chem. 260, 3440 (1985). The ratio of the fluorescence readings was calculated as R=340/380 nm and processed according to the equation [Ca^2+ ]i =KD ((R-Rmin)/Rmax -R))(Sf2 /Sb2) to determine the intraplatelet free Ca^2+ concentration. The KD for fura-2 was assumed to be 224 nM. Rmax and Rmin are the maximum and minimum fluorescence ratios measured at the end of the experiment, respectively; Sf2 and Sb2 are the fluorescence values at 380 nm in the absence and presence of saturating [Ca^2+ ], respectively.

α-thrombin = α-thrombin (Homo sapiens, UniProt P00734); experiment: α-thrombin cleavage of thrombin receptor peptide NAT12 (HPLC); format: biochemical; conditions: peptide 1 mM, 8 nM α-thrombin
Experimental: A further study was performed to determine whether BK analogs prevent α-thrombin from cleaving the thrombin receptor reported by Vu et al., Cell 64, 1057 (1991). A peptide, NAT12 (SEQ ID NO:2), which spans amino acids […] of the α-thrombin cleavage site on the thrombin receptor, was used to determine whether the BK analogs described herein blocked α-thrombin cleavage of the cloned receptor.
The cleavage study was performed according to the method of Molino et al., J. Biol. Chem. 270,11168(1995),inwhichNAT12(SEQ ID NO:2) was dissolved in a solution of 0.01 M NaH2 PO4 and 0.15 M NaCl, pH 7.4. […] Following incubation, each mixture was separated by applying the mixture to a Vyadec C-18 HPLC column in 0.1% trifluoroacetic acid and eluting the mixture with a gradient from 0% to 100% of 80% MeCN and 0.1% trifluoroacetic acid. The size of the separated products were confirmed by mass spectrometry.

[1] = rabbit clearance study (plasma antigen by ELISA); format: in vivo, New Zealand white rabbits
Experimental: (§1) Clearance studies have been performed in New Zealand white rabbits with BK analog SEQ ID NO:19. White rabbits weighing between 2.0 and 2.5 kg were premedicated according to the method of Michelson et al., J. Mol. Cell Cardiol. 20, 547 (1988) with 10 mg/kg 1 M xylazine and 10 mg/kg 1 M ketamine. After tracheostomy, intubation, and positive pressure ventilation done with room air (Harvard instruments), stage III surgical anesthesia was maintained with 20 mg/ml of intravenous pentobarbital. A carotid artery and a jugular vein were then exposed. A catheter was inserted into the exposed carotid artery for withdrawal of blood samples and monitoring the animal's blood pressure (Gould, Inc., Cardiovascular Products, Oxnard, Calif.). In a similar manner, a catheter was inserted into the exposed jugular vein for administering the anesthetic and BK analog SEQ ID NO:19.
(§2) For the clearance study, a single bolus of BK analog SEQ ID NO:19 was injected. The amount of BK analog SEQ ID NO:19 injected was calculated from the weight of the animal such that the blood volume was 1 mM with peptide. For example: for a 2.5 kg rabbit, 7% of its weight gives an estimated blood volume of 175 ml. Accordingly, 89 mg of BK analog was injected to make the 175 ml plasma sample 1 mM. Depending upon the size of the animal, 75 to 90 mg peptide was injected. Blood samples were collected at 2, 4, 6, 8, 10, 20, 30, 40, 60, 90, and 120 minute intervals after infusion into a 0.013 M sodium citrate anticoagulant solution. Plasma was prepared from each of the blood samples collected over time by centrifugation of the blood samples at 10,00 xg for two minutes. Aliquots of the plasmas were assayed for the presence of the BK analog SEQ ID NO:19 antigen by the ELISA technique using a MARKIT-M [1-5] BK assay from Dainippon Pharmaceutical Co., Ltd., Osaka, Japan.

[2] = observations in rabbits after bolus injection; format: in vivo, New Zealand white rabbits; conditions: single iv bolus
Experimental: as §1, §2

washed platelets = experiment: 125I-α-thrombin binding to platelets; design: species or system human; conditions: peptide 1 mM
Experimental: Gel filtered platelets were placed into polypropylene tubes and diluted with Hepes-Tyrode's buffer, containing 2 mM CaCl2 and 50 μM ZnCl2 and additions, to a final concentration of 2×10^8 platelets/ml. The reaction was started by the addition of 1 nM ^125 I-α-thrombin, which was prepared by using the iodogen technique as reported by Meloni et al., J. Biol. Chem. 266, 6786 (1991). Incubations were performed at 37° C. for specified times with various additions. After incubation, 50 μl aliquots were removed in triplicate for each experimental point and placed in polypropylene microcentrifuge tubes with an extended tip containing 200 μl of an oil mixture which consisted of 1 part Apiezon A oil to 9 parts of n-butylphthalate (Gustafson et al., J. Clin. Invest. 78, 810 (1986)), and centrifuged at room temperature for 2 min at 10,900× g in a microcentrifuge. (Model E, Beckman Instruments, Palo Alto, Calif.) The supernatant was removed and the tips amputated for placement in the gamma counter. The radioactivity present in the cell pellet was determined with an LKB Rack Gamma Counter (LKB Instruments, Inc., Gaithersburg, Md.). Nonspecific binding was measured in the presence of a 100-fold molar excess of α-thrombin.

[3] = aggregation and secretion not distinguished, read-out: IC50, inhibition of α-thrombin-induced platelet activation
[4] = washed platelets, α-thrombin 1 nM, read-out: IC50 AGGREGATION (inhibition of α-thrombin-induced platelet aggregation)
[5] = washed platelets, α-thrombin 1 nM, read-out: IC50 SECRETION (inhibition of α-thrombin-induced platelet secretion)

Compound: Arg-Pro-Pro-Gly (RPPG) [SEQ ID NO:20]
- inhibition of aggregation (platelets): 95%
- inhibition of secretion (platelets): 25%

Compound: SEQ ID NO:6: scrambled peptide having the same amino acid count as SEQ ID NO: 14 (FSGPKRSPIMGRPSFR) [reference compound]
- inhibition of aggregation (platelets): 26%
- inhibition of secretion (platelets): 8%

- IC50 (human platelets): 300 µM
Compound: CC[C@H](C)[C@H](NC(=O)[C@H](CCCNC(=N)N)NC(=O)[C@H](CO)NC(=O)[C@H](CO)NC(=O)[C@H](CCCNC(=N)N)NC(=O)[C@H](Cc1ccccc1)NC(=O)[C@@H]1CCCN1C(=O)[C@H](CO)NC(=O)[C@H](Cc1ccccc1)NC(=O)CNC(=O)[C@@H]1CCCN1C(=O)[C@@H]1CCCN1C(=O)[C@H](CCCNC(=N)N)NC(=O)[C@H](CCCCN)NC(=O)[C@@H](N)CCSC)C(=O)NCC(=O)O [SEQ ID NO:14]

Compound: RPPGF [SEQ ID NO:19, Arg-Pro-Pro-Gly-Phe]
- cleavage product peak 2, share of non-treated NAT12 peak area (α-thrombin): 26%
- cleavage product peak 3, share of non-treated NAT12 peak area (α-thrombin): 31%
- reduction of NAT12 peak 1 area after α-thrombin (α-thrombin; one hour 37° C.): 57%
- effect of ligating renal arteries on half-life ([1]; Rabbit 2, renal arteries ligated): did not lengthen the half-life
- half-life of antigen clearance in plasma ([1]; single iv bolus): 6.6 min
- peak plasma concentration after infusion ([1]; single iv bolus, two minutes after infusion): 0.120 mM
- peak plasma concentration after infusion ([1]; single iv bolus, two of three rabbits, ELISA): 60 µg/mL
- bleeding at the surgical sites of cutdowns and intubations [2]: no abnormal bleeding
- blood pressure [2]: remained stable
- platelet count [2]: remained stable
- pulse [2]: remained stable
- unfavorable effects following the bolus injection [2]: No unfavorable effects were observed

- IC50 (platelets; [3]): ≥ 2000 µM
- IC50 (platelets; [4]): 2000 µM
- IC50 (platelets; [5]): > 2000 µM
Compound: SEQ ID NO:7: BK analog of the mid or carboxy terminal regions of BK (FSPFRSS)

Compound: SEQ ID NO:9: scrambled peptide having the amino acids of SEQ ID NO:19 (GPFPR) [reference compound]
- inhibition of aggregation (platelets): did not inhibit
- inhibition of secretion (platelets): did not inhibit

Compound: SEQ ID NO:5: scrambled peptide having the amino acids of SEQ ID NO:19 (FPRPG) [reference compound]
- inhibition of aggregation (platelets): did not inhibit
- inhibition of secretion (platelets): did not inhibit

- IC50 (platelets; [4]): 850 µM
- IC50 (platelets; [5]): > 2000 µM
Compound: SEQ ID NO:8: BK analog that encompasses all or a portion of the native BK sequence (GFSPFRSSRIG)
- inhibition of 125I-α-thrombin binding to platelets (washed platelets): did not block

- IC50 (platelets; [3]): ≥ 2000 µM
- IC50 (platelets; [4]): > 3000 µM
- IC50 (platelets; [5]): > 2000 µM
Compound: SEQ ID NO:16: BK analog of the mid or carboxy terminal regions of BK (PPGFSP)

— patent US6143719A, “Bradykinin analogs as selective thrombin inhibitors” (The Regents of the University of Michigan, priority 1996, dated 2000)
